Where no end group is shown, it is not given here. [ ]: non-standard residue; d: D form. AllylGly = C=CC[C@H](N)C(=O)O
Key:
Type in all cases: cell-based
[1] = system: HeLa cells; test: Assay of cytoskeletal (actin) rearrangement, fluorescence microscopy; details: 60 minutes, FIG. 11
Procedure: FIG. 10 is a fluorescence microscopy analysis showing the effects of FCIGRL (SEQ ID NO:1) and F-(Allyl)GIGRL (SEQ ID NO:2) on actin rearrangement in HeLa cells after 15 minutes and 60 minutes.
Gliadin treated with the peptidases pepsin and trypsin (termed PT-gliadin or PTG) induces a cytoskeletal arrangement in CaCo2 cells grown in monolayers. The rearrangement can be visualized using a Nikon-TE2000 epifluorescence microscope and a 40× objective and Alexa Fluor 555 conjugated phalloidin (Invitrogen, Carlsbad, Calif.), which binds specifically to F-actin. Exposure times were identical for control and agonist treated samples. The figures were generated using Adobe Photoshop CS2 v 9.0.2. The concentration of agonist was as indicated. Tight junction agonists can be identified by their ability to induce the cytoskeletal rearrangement as shown by the effects of peptide FCIGRL, a known tight junction agonist. FIGS. 3-6 and 8-11 show the cytoskeletal rearrangements induced by exemplary tight junction agonists of the invention, including with respect to the distribution of F-actin and the tight junction protein ZO-1.

[2] = system: CaCo2 monolayers; test: Trans Epithelial Electric Resistance (TEER) across CaCo2 monolayers; parameters: key to Reduced TEER: + indicates an enhancement of the permeability of the tight junctions were observed; − indicates no enhancement of permeability was observed; details: CaCo2 monolayers
[3] = system: CaCo2 monolayers; test: Lucifer Yellow (LY) permeability assay through CaCo2 monolayers; parameters: key to Enhanced LY permeability: + indicates an enhancement of the permeability of the tight junctions were observed; − indicates no enhancement of permeability was observed; details: CaCo2 monolayers, Lucifer Yellow flux

Row | Substance | actin rearrangement in HeLa cells [1] | Reduced TEER [2] | Enhanced LY permeability [3]
1 | Phe−AllylGly−Ile−Gly−Arg−Leu−OH [SEQ ID NO: 2] | actin cytoskeletal rearrangement to the borderline of cells |  | 
2 | 16 (K[AllylGly]IGRL-NH2; N-terminus assumed; SMILES C=CC[C@H](NC(=O)[C@@H](N)CCCCN)C(=O)N[C@H](C(=O)NCC(=O)N[C@@H](CCCNC(=N)N)C(=O)N[C@@H](CC(C)C)C(N)=O)[C@@H](C)CC) [compound 16] |  | − | −
3 | 10 (E[AllylGly]IGRL-NH2; N-terminus assumed; SMILES C=CC[C@H](NC(=O)[C@@H](N)CCC(=O)O)C(=O)N[C@H](C(=O)NCC(=O)N[C@@H](CCCNC(=N)N)C(=O)N[C@@H](CC(C)C)C(N)=O)[C@@H](C)CC) [compound 10] |  | − | −
4 | 55 (F[AllylGly]IGHL-NH2; N-terminus assumed; SMILES C=CC[C@H](NC(=O)[C@@H](N)Cc1ccccc1)C(=O)N[C@H](C(=O)NCC(=O)N[C@@H](Cc1c[nH]cn1)C(=O)N[C@@H](CC(C)C)C(N)=O)[C@@H](C)CC) [compound 55] |  | − | −
5 | 17 (A[AllylGly]IGRL-NH2; N-terminus assumed; SMILES C=CC[C@H](NC(=O)[C@H](C)N)C(=O)N[C@H](C(=O)NCC(=O)N[C@@H](CCCNC(=N)N)C(=O)N[C@@H](CC(C)C)C(N)=O)[C@@H](C)CC) [compound 17] |  | − | −
6 | 22 (F[AllylGly]PGRL-NH2; N-terminus assumed; SMILES C=CC[C@H](NC(=O)[C@@H](N)Cc1ccccc1)C(=O)N1CCC[C@H]1C(=O)NCC(=O)N[C@@H](CCCNC(=N)N)C(=O)N[C@@H](CC(C)C)C(N)=O) [compound 22] |  | − | −
7 | 24 (F[AllylGly]TGRL-NH2; N-terminus assumed; SMILES C=CC[C@H](NC(=O)[C@@H](N)Cc1ccccc1)C(=O)N[C@H](C(=O)NCC(=O)N[C@@H](CCCNC(=N)N)C(=O)N[C@@H](CC(C)C)C(N)=O)[C@@H](C)O) [compound 24] |  | − | −
8 | 12 (Y[AllylGly]IGRL-NH2; N-terminus assumed; SMILES C=CC[C@H](NC(=O)[C@@H](N)Cc1ccc(O)cc1)C(=O)N[C@H](C(=O)NCC(=O)N[C@@H](CCCNC(=N)N)C(=O)N[C@@H](CC(C)C)C(N)=O)[C@@H](C)CC) [compound 12] |  | − | −
9 | 80 (F[AllylGly]IGRE-NH2; N-terminus assumed; SMILES C=CC[C@H](NC(=O)[C@@H](N)Cc1ccccc1)C(=O)N[C@H](C(=O)NCC(=O)N[C@@H](CCCNC(=N)N)C(=O)N[C@@H](CCC(=O)O)C(N)=O)[C@@H](C)CC) [compound 80] |  | + | +

Reference: US8557763B2, “Synthetic peptides that enhance tight junction permeability” (Alba Therapeutics Corporation, priority 2007, dated 2013)
